Data published in patent US8722707B1, “Compositions and methods for inhibition of smooth muscle cell proliferation and neointimal hyperplasia” (The Ohio State University, priority 2009, dated 2014).

Assays:
human aortic SMCs [1] = assay: Serum-stimulated proliferation of human aortic SMCs (viable cell count); assay type: cell-based
Description: Human aortic SMCs were obtained at passage 3 (AoSMC; Lonza Walkersville, Inc., Walkersville, Md.). The cells were maintained in culture in a humidified incubator at 37 C and 5% CO2 in smooth muscle cell growth medium (SmG M-2). Cells were trypsinized and passaged at 95% confluence. Studies were performed using cells at passages 4 to 6 at 6 0 to 90% confluence. Cells were counted using an automated cell counter (NucleoCounter; New Brunswick Scientific, Edison, N.J.).
We first studied the effect of HO-3867 on serum-stimulated proliferation of human aortic SMCs, in vitro (FIG. 1A).
(§1) The cells were then treated with 0, 0.5, 1, 5, and 10 μM HO-3867 for 24 h, after which the cells were trypsinized and counted for viability. […] We observed inhibition of SMC proliferation by both phase-contrast microscopy (FIG. 1B) and by nuclear staining with DAPI (FIG. 1C). Next, we determined whether the growth inhibition of SMC by HO-3867 was due to cell cycle arrest or apoptosis. SMCs were treated with 10 μM HO-3867 for 12 or 24 h. The cells were then fixed, and cell cycle populations were determined by flow cytometry.

rat carotid artery = assay: Neointimal formation after balloon injury in rat carotid artery (morphometric analysis); assay type: in vivo, Sprague-Dawley rats; settings: subcutaneous
Description: (§2) All experiments involving animals were performed in accordance with the relevant guidelines and regulations approved by the Internal Animal Care and Use Committee of The Ohio State University. Sprague-Dawley rats weighing 300 to 350 g were anesthetized by an intraperitoneal injection of ketamine (6 0 mg/kg) and xylazine (5 mg/kg). Under a stereomicroscope, the right common, external, and internal carotid arteries were exposed by a longitudinal midline cervical incision. Blood flow was temporarily interrupted by ligation of the common and internal carotid arteries using vessel clips. The external carotid artery was ligated permanently using 6-0 silk suture. A 2F Fogarty arterial embolectomy catheter (Edwards Lifesciences, Irvine, Calif.) was introduced through an arteriotomy in the external carotid artery just below the ligature and advanced to the common carotid artery. To produce the injury, the balloon was inflated with saline and passed six times with rotation from just under the proximal edge of the omohyoid muscle to the carotid bifurcation. The balloon was then deflated, and the catheter was withdrawn. Blood flow was restored by removing the clips on the common and internal carotid arteries. After visual inspection to ascertain adequate pulsation of the common carotid artery, the surgical incision was closed, and the rats were allowed to recover from anesthesia in a humidified and warmed chamber for 2 to 4 h.
Immediately after completion of the carotid injury procedure, subcutaneous administration of HO-3867 (in 10% DMSO+40% polyethylene glycol+50% PBS) commenced at a dose of 5 or 10 mg/kg/day, and continued for 2 weeks (n=5 for each group). The control group received the vehicle only. After treatment for 14 days, the animals were sacrificed with an overdose of pentobarbital (200 mg/kg), and the carotid arteries were collected for morphometric analysis and isolation of proteins for analysis by Western blotting. […] The intimal and medial areas were measured using MetaMorph software (Molecular Devices, Sunnyvale, Calif.), and intimal/medial ratios were calculated. […]

MMP-2 [2] = assay: MMP-2 activity by gelatin zymography in rat carotid artery; assay type: in vivo, Sprague-Dawley rats; settings: treatment group compared with injured/untreated group
Description: (§3) MMP-2 and MMP-9 was determined by gelatin zymography as reported previously (Cho and Reidy, 2002). Matrix metalloproteinase-9 is necessary for the regulation of smooth muscle cell replication and migration after arterial injury. Circ Res 91:845-851).
(§4) All experiments involving animals were performed in accordance with the relevant guidelines and regulations approved by the Internal Animal Care and Use Committee of The Ohio State University. Sprague-Dawley rats weighing 300 to 350 g were anesthetized by an intraperitoneal injection of ketamine (6 0 mg/kg) and xylazine (5 mg/kg). Under a stereomicroscope, the right common, external, and internal carotid arteries were exposed by a longitudinal midline cervical incision. Blood flow was temporarily interrupted by ligation of the common and internal carotid arteries using vessel clips. The external carotid artery was ligated permanently using 6-0 silk suture. […]
(§5) Immediately after completion of the carotid injury procedure, subcutaneous administration of HO-3867 (in 10% DMSO+40% polyethylene glycol+50% PBS) commenced at a dose of 5 or 10 mg/kg/day, and continued for 2 weeks (n=5 for each group). […] The intimal and medial areas were measured using MetaMorph software (Molecular Devices, Sunnyvale, Calif.), and intimal/medial ratios were calculated. […]

[3] = system: MMP-2, MMP-9, NF-κB p65, pERK1/2, pAkt, cyclin D1, p53, cleaved caspase-3; assay: Western blot of regulatory proteins in rat carotid artery tissue after balloon injury; assay type: in vivo, Sprague-Dawley rats
Description: (§6) Western blotting was performed as reported previously (Selvendiran K, Tong L, Vishwanath S, Bratasz A, Trigg N J, Kutala V K, Hideg K, and Kuppusamy P, EF 24 induces G 2/M arrest and apoptosis in cisplatin-resistant human ovarian cancer cells by increasing PTEN expression. J Biol Chem 282::28609-28618).
as §2, with “After visual inspection to ascertain adequate pulsation of the common carotid artery, the surgical incision was closed, and the rats were allowed to recover from anesthesia in a humidified and warmed chamber for 2 to 4 h.” left out
Immediately after completion of the carotid injury procedure, subcutaneous administration of HO-3867 (in 10% DMSO+40% polyethylene glycol+50% PBS) commenced at a dose of 5 or 10 mg/kg/day, and continued for 2 weeks (n=5 for each group). […] The intimal and medial areas were measured using MetaMorph software (Molecular Devices, Sunnyvale, Calif.), and intimal/medial ratios were calculated.

NF-κB p65 = NF-κB p65 expression in SMCs (Western blot); assay type: cell-based, human; settings: 10 μM, 24-h exposure
Description: as §6
In addition, HO-3867 inhibited NF-κB p65, one of the main regulator mechanisms in the inflammatory activation of MMP-9 in SMCs (FIG. 5A).

MMP-9 [4] = assay: MMP-9 activity by gelatin zymography in rat carotid artery; assay type: in vivo, Sprague-Dawley rats; settings: treatment group compared with injured/untreated group
Description: as §3, §4, §5

reactive oxygen species = assay: Production of reactive oxygen species in cultured SMCs; assay type: cell-based, human; settings: data not shown
Description: (§7) We next wanted to check the involvement of reactive oxygen species-mediated p38 mitogen-activated protein kinase pathways in the activation of ATF-2.

PTEN [5] = assay: PTEN expression in rat carotid artery tissue after balloon injury; assay type: in vivo, Sprague-Dawley rats; settings: subcutaneous, 14 days
Description: as §6, §4, §5

PTEN [6] = assay: PTEN expression and activation in SMCs (Western blot, immunofluorescence, RT-PCR); assay type: cell-based, human; parameters: PTEN mRNA expression: dose or concentration left out as unconfirmed
Description: as §6
(§8) SMCs, grown on Lab-Tek Chamber slides (Nalge Nunc International, Rochester, N.Y.), were fixed with 4% paraformaldehyde for 10 min at room temperature and then washed in PBS containing 0.05% Tween 20. Nonspecific reactions were blocked with Protein B lock Serum-Free (DAKO, Kyoto, Japan) and then incubated with an anti-PTEN, MMP-2, or MMP-9 antibody at 4 C overnight. After washing in PBS containing 0.05% Tween 20, the specimens were treated with Alexa Fluor goat anti-mouse IgG (H+L) antibody (Invitrogen, Carlsbad, Calif.) for 45 min at room temperature and then counterstained by propidium iodide after digestion of RNA by RNase (Invitrogen). The immunostaining of PTEN, MMP-2, and MMP-9 proteins was visualized using a fluorescence microscope (Nikon, Tokyo, Japan).
Total RNA was isolated from SMCs using the RNeasy system according to the instructions of the manufacturer. RNA quantification was done using spectrophotometry. Reverse transcription (RT)-PCR analysis for the mRNA expressions in PTEN and the internal control GAPDH was carried out using a GeneAmp PCR System Veriti thermo cycler (Applied Biosystems, Foster City, Calif.) under the following conditions: initial denaturation at 94 C for 2 min, 35 cycles of amplification (denaturation at 94 C for 30 s, annealing at 50 C for 30 s, and extension at 72 C for 30 s), and extension at 72 C for 5 min. The sequences (5′-3′) for the primer pairs of PTEN and GAPDH, respectively, were as follows:
This was further confirmed by immunofluorescence microscopy (FIG. 2B).
To confirm whether the increase in the expression of PTEN was due to its transcriptional induction by HO-3867, we performed RT-PCR analysis for PTEN mRNA.

[7] = system: p53, p21, ERK1/2, cyclin D1, Akt; assay: Cell cycle regulatory proteins in SMCs (Western blot); assay type: cell-based, human; settings: SMCs treated with HO-3867
Description: as §6

human aortic SMCs [8] = assay: Cell cycle analysis by flow cytometry in SMCs; assay type: cell-based; settings: 10 μM for 12 or 24 h
Description: Flow cytometry was performed (Selvendiran K, Bratasz A, Tong L, Ignarro L J, and Kuppusamy P, NCX-4016, a nitro-derivative of aspirin, inhibits EGFR and STAT3 signaling and modulates Bcl-2 proteins in cisplatin-resistant human ovarian cancer cells and xenografts. Cell Cycle 7 :8188).
as §1

MMP-2 [9] = assay: MMP-2 expression in SMCs (Western blot, immunofluorescence); assay type: cell-based, human; settings: 10 μM for 12 or 24 h
Description: as §6, §8
(§9) We investigated whether the HO-3867-induced PTEN expression could suppresses MMP expression in SMCs.

[10] = system: p38 mitogen-activated protein kinase; assay: Activation of p38 mitogen-activated protein kinase in cultured SMCs; assay type: cell-based, human; settings: data not shown
Description: as §7

[11] = system: PTEN cDNA-transfected SMCs; assay: PTEN cDNA-transfected SMCs treated with HO-3867 (survival, cell cycle, cleaved caspase-3); assay type: cell-based, human
Description: The PTEN siRNA and cDNA transfection experiments were performed as reported (Selvendiran et al., 2007, supra).
We investigated whether the PTEN overexpression was responsible for the inhibition of cell survival and proliferation in SMCs. We used wild-type PTEN cDNA transfection into SMCs for these experiments. Twenty-four hours after transfection, the cells were treated with 10 μM HO-3867 for 12 h.

MMP-9 [12] = assay: MMP-9 expression in SMCs (Western blot, immunofluorescence); assay type: cell-based, human; settings: 10 μM for 12 or 24 h
Description: as §6, §8, §9

ATF-2 = ATF-2 activation in SMCs (Western blot); assay type: cell-based, human; parameters: dose or concentration left out as unconfirmed; settings: HO-3867 (FIG. 3A legend)
Description: as §6, §7

FAK = FAK expression in SMCs (Western blot); assay type: cell-based, human; settings: 10 μM, 24-h exposure
Description: as §6

[13] = system: human aortic endothelial cells; assay: Inhibitory effect on human aortic endothelial cells; assay type: cell-based; settings: 10 μM
[14] = Western blot of carotid tissue, 14 days treatment
[15] = 10 μM, as early as 1 h of treatment, immunoblot

CC1(C)C=C(CN2C/C(=C\c3ccc(F)cc3)C(=O)/C(=C/c3ccc(F)cc3)C2)C(C)(C)N1O [HO-3867, 1-[(1-Oxyl-2,2,5,5-tetramethyl-2,5-dihydro-1H-pyrrol-3-yl)methyl]-(3E,5E)-3,5-Bis(4-fluorobenzylidene)piperidin-4-one]
viable cell count (human aortic SMCs [1]; 0, 0.5, 1, 5, and 10 μM for 24 h, FBS-stimulated SMCs): decreased in a concentration-dependent manner
EC50 (human aortic SMCs [1]; 10% FBS-stimulated human SMCs, HO-3867 for 24 h, viable cell count): 3.82 µM
cell-counts (human aortic SMCs [1]; at 1, 5, and 10 μM, 24 h, p<0.05 versus untreated cells): Significantly reduced cell-counts
inhibition of neointimal formation (rat carotid artery; 5 mg/kg, 14 days, data not shown): did not show any significant inhibition
intima/media ratio (rat carotid artery; daily for 14 days after balloon injury, versus injured/untreated): significantly reduced
intimal thickening (rat carotid artery; daily for 14 days after balloon injury, 10 mg/kg (FIG. 7A)): significantly inhibited
MMP-2 activity (MMP-2 [2]): significantly down-regulated
apoptosis in vivo (activation of cleaved caspase-3) ([3]; 10-mg/kg dose): induced apoptosis in vivo
MMP-2, MMP-9, NF-κB p65, pERK1/2, pAkt, and cyclin D1 in tissue [3, 14]: down-regulation
p53 and cleaved caspase-3 in tissue [3, 14]: up-regulation
NF-κB p65 (NF-κB p65): inhibited
MMP-9 activity (MMP-9 [4]): significantly down-regulated
production of reactive oxygen species (reactive oxygen species): did not detect
PTEN level in carotid artery tissue (PTEN [5]; 5 mg/kg): restored PTEN to the control level
PTEN level in carotid artery tissue (PTEN [5]; 10 mg/kg): increased the PTEN level significantly above control level
PTEN activation (pPTEN) (PTEN [6]; [15]): induced
PTEN expression (PTEN [6]; [15]): induced
PTEN mRNA expression (PTEN [6]; RT-PCR, in 3 h): increase
Akt level [7]: without any change
ERK1/2 and cyclin D1 [7]: down-regulation
p53 and p21 [7]: induction
sub-G1 population (apoptosis) (human aortic SMCs [8]): no effect
G1 cell cycle arrest (human aortic SMCs [8]; time-dependent): induced G1 cell cycle arrest
MMP-2 expression (MMP-2 [9]): down-regulated
activation of p38 mitogen-activated protein kinase [10]: did not detect
survival of PTEN cDNA-transfected cells ([11]; 10 μM HO-3867, compared with untreated or nontransfected cells): even more significant reduction
apoptotic population (sub-G1), PTEN cDNA overexpression plus HO-3867 ([11]; 10 μM, 12 h, compared with PTEN cDNA- or HO-3867-alone-treated groups): significantly increased
cleaved caspase-3 levels, PTEN cDNA+HO-3867-treated cells ([11]; 10 μM, 12 h, compared with untreated or nontransfected cells): substantial increase
MMP-9 expression (MMP-9 [12]): down-regulated
time to ATF-2 activation (ATF-2): ≤ 15 min
expression of FAK (FAK): down-regulated
inhibitory effect on human aortic endothelial cells [13]: did not have any significant inhibitory effect
